Where “and” joins values, the source holds several entries; their conditions need not be identical. Equal entries are not always repeated.
Columns and labels:
[1] = xn = mol fraction of the nth substance listed; settings: 101.3 kPa, Liquid
[2] = 101.3 kPa, Liquid

C1COCCO1 [1,4-dioxane] + CCCCO
[1]
Settings	mass density, 303.15 K [kg/m3]	mass density, 308.15 K [kg/m3]	mass density, 313.15 K [kg/m3]	viscosity, 303.15 K [mPa·s]	viscosity, 308.15 K [mPa·s]	viscosity, 313.15 K [mPa·s]
x1 = 0.1066	826.5	818.4	816.8	2.011	1.683	1.522
x1 = 0.2116	847.6	839.9	837.9	1.635	1.362	1.281
x1 = 0.3151	868.6	861.3	859	1.37	1.165	1.094
x1 = 0.4171	889.9	882.7	880.2	1.243	1.081	0.9963
x1 = 0.5177	911.3	904.3	901.5	1.164	1.032	0.9565
x1 = 0.6169	932.8	926.2	923.1	1.093	1.007	0.9426
x1 = 0.6659	943.6	937.3	934	1.064	0.9903	0.9289
x1 = 0.7146	954.6	948.4	945.2	1.038	0.9768	0.919
x1 = 0.763	965.6	959.6	956.3	1.016	0.9543	0.9043
x1 = 0.8111	976.7	971	967.4	1.015	0.9484	0.9234
x1 = 0.8588	987.9	982.3	978.6	1.031	0.9507	0.9384
x1 = 0.9062	999.2	993.6	989.7	1.065	0.9793	0.9315
x1 = 1	1022.3	1016.7	1012	1.098	1.03	0.9575

ClC(Cl)(Cl)Cl [tetrachloromethane] + CCCCO
[1]
Settings	mass density, 303.15 K [kg/m3]	mass density, 308.15 K [kg/m3]	mass density, 313.15 K [kg/m3]	viscosity, 303.15 K [mPa·s]	viscosity, 308.15 K [mPa·s]	viscosity, 313.15 K [mPa·s]
x1 = 0.0954	885	876	873.9	2.028	1.698	1.498
x1 = 0.1918	964.8	955.5	953	1.708	1.444	1.293
x1 = 0.2891	1044.5	1034.7	1031.7	1.496	1.276	1.172
x1 = 0.3875	1123.5	1113.8	1110.1	1.356	1.157	1.069
x1 = 0.4869	1201.2	1191.8	1187.6	1.248	1.096	1.038
x1 = 0.5874	1277.3	1268.5	1264.2	1.157	1.052	0.9981
x1 = 0.6889	1352.2	1344.8	1340.9	1.069	1.004	0.9502
x1 = 0.7401	1389.9	1382.7	1378.8	1.025	0.9705	0.9211
x1 = 0.7915	1427.1	1420.2	1415.9	1.005	0.9552	0.8947
x1 = 0.8432	1463.6	1457.8	1454.2	0.9778	0.9211	0.8727
x1 = 0.8952	1501.2	1495.7	1491.8	0.9554	0.8975	0.8612
x1 = 0.9475	1538.9	1534.3	1530.5	0.9164	0.8787	0.8346
x1 = 1	1580.6	1575.7	1571.3	0.8689	0.8307	0.8072

CCCCO [butan-1-ol]
[2]
Settings	mass density [kg/m3]	viscosity
303.15 K	805.7	2.282 mPa·s
308.15 K	797.2	1.907 mPa·s and 1.895 mPa·s
313.15 K	795.5	1.681 mPa·s

C1COCCO1 [1,4-dioxane] + ClC(Cl)(Cl)Cl
[1], x1 = 1
Settings	mass density [kg/m3]	viscosity [mPa·s]
303.15 K	1022.3	1.099
308.15 K	1016.7	1.03
313.15 K	1012	0.9575

Source: the NIST ThermoML archive (doi:10.1021/je030133a)
